For assay [1], the system named is H3 peptide (1–17) (H3K9me0). The assay can be described thus: ITC, H3 (H3K9me0) peptide (1-17) titrated into UHRF1 proteins. The assay is classed as binding. Here is the method:
(§1) For competition ITC experiments: the indicated proteins were pre-incubated with competitive peptide, protein or hm-DNA (at 1:2 molar ratio if not specified) for 10 min followed by ITC measurements as described above. Proteins, DNA and peptides were prepared within ITC buffer containing 10 mM HEPES, pH 8.0, 100 mM NaCl. The data were fitted by software Origin 7.0. All ITC results were summarized in Supplementary Table 2 and raw data were shown in Supplementary Fig. 9.

Assay [2] has as its target PHD (residues 307–366) of UHRF1. Description: ITC, PHD titrated into UHRF1 domains. The assay is classed as binding, human. The conditions noted are these: 18 °C, PHD in syringe, named protein in cell, 10 mM HEPES pH 8.0, 100 mM NaCl. On the procedure:
as §1

The next assay deals with hm-DNA (12 bp). The assay can be described thus: ITC, hm-DNA titrated into UHRF1 domains. The assay is classed as binding. As to conditions: 18 °C, 12-bp hm-DNA in syringe, named protein in cell, 10 mM HEPES pH 8.0, 100 mM NaCl. Here is the method: as §1
For orientation: Isothermal titration calorimetry measures the heat released or taken up as one component is titrated into another.

A further assay has as its target RFTS^DNMT1. The assay can be described thus: ITC, RFTS of DNMT1 with SRA or SRA-Spacer. The assay is classed as binding. As to conditions: 18 °C, RFTS^DNMT1 with named protein, 10 mM HEPES pH 8.0, 100 mM NaCl. Here is the method:
as §1

The next assay has as its target FAM-12bp-HM-DNA. Description: Fluorescence polarization, 12-bp FAM-hm-DNA. The assay is classed as binding. The conditions noted are these: FP. On the procedure:
A 6-carboxy-fluorescein (FAM)-labelled primer, 5′-CCATGCGCTGAC-3′, was annealed to a primer 5′-GTCAGXGCATGG-3′ (X=5-methyldeoxycytosine). The hemi-methylated double-strand DNA was used in both electrophoretic mobility-shift assay and FP assays. […] The samples were subjected to a 10% polyacrylamide gel electrophoresis and run in 0.5 × Tris-borate-EDTA buffer at 100 V for 1 h at 4 °C. The results were visualized on Tanon-5200 Chemiluminescent Imaging System (Tanon Science & Technology Co., Ltd).
(§2) FP measurements were performed at 25 °C on Synergy 4 Microplate Reader (BioTek). The 16-bp and 20-bp FAM-labelled hm-DNA (lower strand: 5′-GTGTCAGXGCATGGCC-3′ and 5′-CCGTGTCAGXGCATGGCCAT-3′, respectively. X=5-methyldeoxycytosine) were used in the FP experiment to test the effect of DNA length on the protein/DNA interaction. All experiments were performed in triplicate. The curves were fitted by GraphPad Prism 5. For salt concentration-dependent FP experiments, the reaction buffer contains 50 mM or 150 mM NaCl, respectively.

The target in the next assay is FAM-16bp-HM-DNA. The assay can be described thus: Fluorescence polarization, 16-bp FAM-hm-DNA. As to conditions: FP, DNA length series. In kind it is binding. Here is the method:
as §2
Background: Polarisation of emitted light reports the rotation of a fluorescent probe.

The target in the next assay is FAM-20bp-HM-DNA. Description: Fluorescence polarization, 20-bp FAM-hm-DNA. In kind it is binding. The conditions noted are these: FP, DNA length series. On the procedure:
as §2

The target in assay [3] is T1, TTD (residues 134–285) of UHRF1 (Homo sapiens, UniProt Q96T88).
T1 construct: TTD (residues 134–285); GST (N, cleaved yes); made in house; host or cells: E. coli BL21 (DE3)
T1 sequence (Q96T88 134-285): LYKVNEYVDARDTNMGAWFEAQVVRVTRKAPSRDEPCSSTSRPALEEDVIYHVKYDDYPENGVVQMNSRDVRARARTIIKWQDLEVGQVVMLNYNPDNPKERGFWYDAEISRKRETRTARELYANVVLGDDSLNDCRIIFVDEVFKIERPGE
Description: ITC, TTD titrated into Spacer variants and other UHRF1 fragments. As to conditions: TTD in syringe. In kind it is binding. Here is the method: as §1

The next assay concerns the target H3K9me3 peptide (1–17). Description: ITC, H3K9me3 peptide (1-17) titrated into UHRF1 proteins. In kind it is binding. As to conditions: ITC, 18 °C; named protein 0.05 mM in cell, H3K9me3 (1-17) 0.5 mM in syringe; 10 mM HEPES pH 8.0, 100 mM NaCl; read-out: KD. Here is the method:
as §1

Assay [4] relates to DAPI foci (pericentromeric heterochromatin) in NIH3T3 cells. The assay can be described thus: Subcellular localization of GFP-tagged UHRF1 in NIH3T3 cells. In kind it is cell-based. The conditions noted are these: GFP-tagged protein transiently overexpressed in NIH3T3 cells, 36 h after transfection; at least 100 cells counted; repeated three times. Here is the method: NIH3T3 cells were obtained from the Shanghai Institute of Biochemistry and Cell Biology. Wild type and mutants of UHRF1 were sub-cloned into pEGFP-C1 vector. Transient transfections of NIH3T3 cells were carried out using Lipofectamine 2000 (Invitrogen). The NIH3T3 cells were grown on glass coverslips and harvested in 36 h after transfection. The images were acquired and examined as previously described. Briefly, cells were fixed with 4% paraformaldehyde for 25 min, then washed with PBS three times. Coverslips were mounted with Antifade reagent containing DAPI (Molecular Probes) on slides and examined with a confocal microscopy.

Where [5] appears, read: 25 °C, 20 min, 20 mM HEPES pH 7.5, 175 mM NaCl, 8% glycerol, 1 mM DTT, triplicate, Fig. 5b and Supplementary Table 4.

Regarding “PHD: plant homeodomain of human UHRF1 (residues 307–366) (DDVNRLCRVCACHLCGGRQDPDKQLMCDECDMAFHIYCLDPPLSSVPSEDEWYCPECRND; UniProt Q96T88 307-366, looked up, fragment)”, the “fold higher binding affinity to H3K9me0 peptide than full-length UHRF1” value in assay [1] (ITC KD ratio) is around 34 fold.
In general, Kd refers to the free concentration of one partner at which half of the binding sites on the other are occupied at equilibrium, for simple one-to-one binding. In the case of “SRA: SET-and-RING-associated domain of human UHRF1 (residues 414–617)”, the Kd in [2] was found to be 26.7 ± 12.1 µM; at hm-DNA (12 bp), 25.1 µM; on FAM-12bp-HM-DNA (12-bp hm-DNA, 50 mM NaCl), 0.15 ± 0.018 µM; on FAM-12bp-HM-DNA (12-bp hm-DNA, 150 mM NaCl) it was 5.92 ± 1.32 µM; on FAM-12bp-HM-DNA (setting [5]), 9.23 ± 3.07 µM; on FAM-12bp-HM-DNA (DNA length series, Supplementary Table 5, 12-bp hm-DNA) it was 12.8 ± 2.07 µM. Further, the results for the Kd at FAM-16bp-HM-DNA and on FAM-20bp-HM-DNA were 29.4 ± 9.74 µM and 9.59 ± 4.78 µM, respectively. Also, the KD entry at RFTS^DNMT1 is listed as “no detectable interaction”.
As for “Spacer587-641: Spacer fragment, residues 587–641 (PGPWTKEGKDRIKKLGLTMQYPEGYLEALANREREKENSKREEEEQQEGGFASPR; left off: GST, end not stated, cleaved)”, in [3] (ITC, 18 °C, named protein or peptide in cell, 10 mM HEPES pH 8.0, 100 mM NaCl), the KD entry is “no detectable interaction”.
For the substance “Spacer642-674: Spacer fragment, residues 642–674 (TGKGKWKRKSAGGGPSRAGSPRRTSKKTKVEPY; left off: GST, end not stated, cleaved)”, in [3] (ITC stoichiometry), the N worked out at 1.09±0.00765. Also, in assay [3] (ITC), the ΔH was -11.3 kcal/mol and the ΔS is on record as -11.2 cal/mol/deg.
As for “UHRF1: recombinant human UHRF1 (residues 1–793); GFP-tagged in the cell assay”, the Kd amounted to 4.61 ± 0.47 µM at H3K9me3 peptide (1–17); 26 ± 7.01 µM in assay [1] (ITC, 18 °C, named protein 0.05 mM in cell, H3 (1-17) 0.5 mM in syringe, 10 mM HEPES pH 8.0, 100 mM NaCl); 0.35 µM at FAM-12bp-HM-DNA (setting [5]). The “percentage of cells showing co-localization with DAPI foci” value in [4] was found to be 74.6%.

(Values after article PMC4822050, “Hemi-methylated DNA opens a closed conformation of UHRF1 to facilitate its histone recognition” (Nature Communications, 2016).)
